In patent publication US6743429B2 (Sherbrooke University, priority 1999, dated 2004):
Where no end group is shown, it is not given here.

What was measured:
[1] = tested on: allergic guinea pigs; assay: Allergen (ovalbumin)-induced bronchospasm (PIP) in allergic guinea pigs; assay type: in vivo, guinea pig; details: CGRP receptor antagonist given 5 minutes before the allergen challenge
Procedure: Guinea pigs were anaesthetized with xylazine (20 mg/kg, i.m.) and ketamine hydrochloride (130 mg/kg, i.m.). The jugular vein and trachea were cannulated and animals were mechanically ventilated with a constant-volume rodent respirator (Havard, model 683) delivering a tidal volume of 5.5 ml/kg at a frequency of 60 cycles/min via the tracheal cannula. Airway resistance was measured by the overflow technique according to well-validated and standardized procedures. Briefly, ventilation overflow (i.e., the pulmonary insufflation pressure or PIP), was recorded at the side arm of the tracheal cannula by means of a differential pressure transducer (Gould P23 ID) connected to a Grass polygraph (model 7D). Airway responsiveness was assessed by measuring the changes in PIP following i.v. injections of the agonists. Changes in PIP, which were taken as an index of changed airway resistance, were measured and expressed in mm of mercury (mm Hg). Each agonist was injected through the jugular vein cannula in a volume of 100 μl followed by a washout with 200 μl of heparinized-saline (100 units/ml).
The resulting increase in PIP (bronchoconstriction) was compared to responses obtained in control animals i.e. in allergic guinea pigs, which received only saline solution 5 minutes before the i.v. injection of ovalbumin. […]

[2] = tested on: sheep; assay: Haemodynamic parameters and baseline SRL after inhaled administration in sheep; assay type: in vivo; details: inhaled increasing doses (CGRP 0.1, 0.25, 0.5 and 1.0 mg/2 ml)
Excerpt: (§1) Eighteen sheep with a mean weight of 35 kg (range: 24 to 52 kg) were used for this study. […] Ten of these animals were defined as non-allergic and 8 as allergic, based on the absence or presence of both early and late airway responses after a standard inhalation challenge with Ascaris suum antigen. All sheep were allowed a 4-week recovery period after the allergen challenge before experimentation began. For each of the procedures hereafter presented, the unsedated animals were restrained on a standard shopping cart in the prone position and their heads were immobilized. […]
Briefly, pleural pressure was estimated via the esophageal balloon catheter (filled with 1 ml of air), which was positioned 5 to 10 cm from the gastroesophageal junction. […] Lateral pressure in the trachea was measured with a sidehole catheter (inner diameter=2.5 mm) advanced through and positioned distal to the tip of the endotracheal tube. […] The transpulmonary pressure and flow signals were recorded on a Hewlett Packard (model 7754B, Mass. USA) multichannel recorder, which was linked to a PC 386 Personal Computer (IBM Equipment, Montreal, Quebec) for online calculation of mean RL by dividing the change in transpulmonary pressure by the change in flow at mid-tidal volume (Vt) (obtained by digital integration). […]

[3] = tested on: allergic sheep; assay: Metacholine-induced non-specific airway responsiveness in allergic sheep; assay type: in vivo; details: inhaled 0.5 mg in 2 ml PBS
Excerpt: as §1
(§2) The techniques used for investigating airway mechanics were again well-validated and standardized procedures (as is usually the case with large mammals). […] Lateral pressure in the trachea was measured with a sidehole catheter (inner diameter=2.5 mm) advanced through and positioned distal to the tip of the endotracheal tube. […] The transpulmonary pressure and flow signals were recorded on a Hewlett Packard (model 7754B, Mass. USA) multichannel recorder, which was linked to a PC 386 Personal Computer (IBM Equipment, Montreal, Quebec) for online calculation of mean RL by dividing the change in transpulmonary pressure by the change in flow at mid-tidal volume (Vt) (obtained by digital integration). […]

[4] = tested on: allergic sheep; assay: Ascaris suum antigen-induced early and late increases in pulmonary resistance in sheep; assay type: in vivo
Excerpt: as §1, §2

Compound | magnitude of the allergen-induced bronchospasm versus untreated animals [1] | heart rate [2] | mean arterial blood pressure (MAP) [2] | protection against metacholine-induced increase in airway resistance [3] [%] | effect on late phase bronchoconstriction to Ascaris suum antigen ([4]; aerosol 0.5 mg in 2 ml PBS pretreatment) | reduction of the peak of the early phase response to Ascaris suum antigen ([4]; aerosol 0.5 mg in 2 ml PBS, 20 minutes before antigen challenge) [%]
hCGRP(8-37) (VTHRLAGLLSRSGGVVKNNFVPTNVGSKAF; ends and bridges not checked; UniProt P06881 90-119, looked up, fragment) [a CGRP receptor antagonist] | significant increase | – | – | – | – | –
CC(C)(C)NCC(O)c1ccc(O)c(CO)c1 (stereo not drawn) [salbutamol] | – | increase in heart rate | hypotension | 65 | does not affect | 45
